# Measured values as given in doi:10.1101/2021.09.10.459855v1 (bioRxiv, 2021).
# Tests used:
# [1] = test system: MHC II and CD86 on LPS-activated DCs; assay: DC surface marker expression, MHC II+CD86+ population; format: cell-based, mouse; settings: 24 hours, 100 μM
# [2] = test system: LPS-activated Mφ TNF-α secretion (mouse RAW 264.7); assay: Mφ TNF-α secretion; format: cell-based; settings: 6 hours
# [3] = Micelle morphology by negative-stain TEM; format: physicochemical
# [4] = test system: LPS-activated DC CCL22 production; assay: DC CCL22 production; format: cell-based, mouse
# Micelle surface charge = format: physicochemical; settings: 100 μM in deionized, distilled water (ddH2O); Malvern DLS Zetasizer
# [5] = test system: LPS-activated DC TNF-α secretion; assay: DC TNF-α secretion; format: cell-based, mouse; settings: for Decrease of DC TNF-α secretion: 6 hours
substance,measurement,setting,value
Vasoactive intestinal peptide [VIP],MHC II and CD86 surface markers on DCs,[1],failed to downregulate MHC II and CD86
same,Mφ TNF-α secretion,[2]; 100 μM,cytokine secretion was suppressed
same,Mφ TNF-α secretion,"[2]; concentration-dependent (0.1 - 100 μM), versus LPS alone",mild to moderate TNF-α suppression
same,Aggregation / particle morphology,[3]; 100 μM (highest concentration),aggregate into spherical nanoparticles
same,Particle formation,[3]; lower concentrations than 100 μM (data not shown),no particle formation was observed
same,DC CCL22 production,[4]; 1 μM and 10 μM (Figure S7),reduced CCL22 production
same,DC CCL22 production,[4]; 100 μM (Figure S7),enhanced CCL22 expression
same,Zeta potential,Micelle surface charge,6.82 ± 0.67 mV
same,Decrease of DC TNF-α secretion,[5]; 10 μM,slightly
same,Decrease of DC TNF-α secretion,[5]; 100 μM,more extensively
same,DC TNF-α secretion,"[5]; 24 hours, 1 μM and 10 μM, versus LPS alone",suppressed TNF-α generation
